Source: patent US20070037785A1, “Novel dipeptidyl peptidase IV inhibitors used for functionally influencing different cells and treating immunological, infammatory, neuronal, and other diseases” (priority 2003, published 2007)

These compounds were tested against dipeptidyl peptidase IV (Homo sapiens, UniProt P27487) (assay: biochemical). Details: values marked with "*" are ID50 values; read-out: IC50DPIV, values marked with "*" = ID50.
dipeptidyl peptidase IV, sequence (P27487 whole entry, species assumed): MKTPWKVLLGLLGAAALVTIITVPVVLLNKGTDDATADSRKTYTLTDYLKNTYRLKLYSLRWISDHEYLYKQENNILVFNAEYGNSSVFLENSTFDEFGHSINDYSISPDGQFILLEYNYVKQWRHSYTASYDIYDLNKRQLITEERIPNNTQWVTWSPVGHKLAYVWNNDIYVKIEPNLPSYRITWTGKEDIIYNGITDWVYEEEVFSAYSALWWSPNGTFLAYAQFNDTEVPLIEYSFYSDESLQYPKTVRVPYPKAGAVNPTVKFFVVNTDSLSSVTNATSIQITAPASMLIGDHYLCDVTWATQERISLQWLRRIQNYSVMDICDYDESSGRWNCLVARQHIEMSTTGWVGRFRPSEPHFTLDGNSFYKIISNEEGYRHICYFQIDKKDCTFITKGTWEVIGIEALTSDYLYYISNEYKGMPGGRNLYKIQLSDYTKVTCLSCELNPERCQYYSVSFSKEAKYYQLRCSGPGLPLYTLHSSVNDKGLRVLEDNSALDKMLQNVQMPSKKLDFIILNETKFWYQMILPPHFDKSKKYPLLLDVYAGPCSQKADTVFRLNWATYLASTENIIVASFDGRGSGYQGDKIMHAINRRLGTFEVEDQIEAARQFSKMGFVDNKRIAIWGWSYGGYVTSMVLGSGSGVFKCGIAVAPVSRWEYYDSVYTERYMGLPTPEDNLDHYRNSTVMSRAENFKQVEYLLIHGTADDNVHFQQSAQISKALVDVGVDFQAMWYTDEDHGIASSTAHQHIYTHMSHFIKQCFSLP
With `Cc1cc(NNC(=O)COc2ccc(Cl)cc2Cl)nc(NS(=O)(=O)c2ccccc2)n1` [D9.015] the IC50 was 465 µM. Compound `C/C(=N\NC(=O)c1cc(-c2ccc(CC(C)C)cc2)n[nH]1)c1ccc2ccccc2c1` [D10.007] has an IC50 of 7.2 µM. Compound `CCC(=O)Oc1cccc(N2C(=O)C3C4C=CC(C3C2=O)C2C(=O)N(c3cccc(OC(=O)CC)c3)C(=O)C42)c1` (stereo not drawn) [D4.006] has an IC50 of 4.2 µM. Work on `CCC(O)(CC)C(=O)NNc1ccc(C)cc1C` [D14.001] yielded an IC50 of 1.2 µM. In the case of `O=C1CSCC(=O)N1c1ccc(F)cc1F` [D4.100], the IC50 is reported as 216 µM. `N#C/C(=C\c1ccc(N2Cc3ccccc3C2)cc1)C(=O)NCc1ccco1` [D4.118] gave an IC50 of 456 µM. Work on `COc1ccc(/C=C2\C(=O)N(c3ccccc3)C3=C2C(c2ccc(Br)cc2)N(c2ccccc2)C3=O)cc1` (stereo not drawn) [D12.047] yielded an IC50 of 198 µM. For `O=C(c1cc(C(=O)N2CCOCC2)cc([N+](=O)[O-])c1)N1CCOCC1` [D5.009], the IC50 was 10.7 µM. With `CCOC(=O)c1c(CNC(=O)CN2CCN(c3nc4c([nH]3)c(=O)[nH]c(=O)n4C)CC2)[nH]c2ccc(F)cc12` [D5.043] the IC50 was 69.8 µM. With `COc1ccc(N2C(=O)CSCC2=O)cc1OC` [D4.004] the IC50 was 3.1 µM. `O=C(Oc1cccc(-n2cnnn2)c1)C1CC1` [D4.089] showed an IC50 of 98.4 µM. In the case of `CSc1nc2sc3c(c2c2nnc(SCc4cccc(OC(C)C)c4)n12)CC(C)(C)OC3` [D3.108], the IC50 is reported as 269 µM.

Same assay, conditions: values without "*" = IC-50; read-out: IC50DPIV
`CN(C)CCNc1nc2c(c(=O)n(C)c(=O)n2C)n1Cc1ccccc1Cl` [D6.006] gave an IC50 of 7.5 µM. Work on `COC(=O)C1=CN(N(C(C)=O)C(C)=O)C(=O)CC1` [D12.033] yielded an IC50 of 60.7 µM. Work on `Cc1ccccc1C(=O)N/N=C/c1ccc([N+](=O)[O-])o1` [D6.036] yielded an IC50 of 20.9 µM. For `O=C1CCCC(=O)N1c1ccc(NCCc2ccc(O)cc2)c([N+](=O)[O-])c1` [D4.064], the IC50 was 54.9 µM. `O=C(Nc1ccc(O)c(-c2nc3ccccc3s2)c1)c1ccc([N+](=O)[O-])o1` [D3.018] was tested, and the IC50 was 14.4 µM. Compound `O=C(COc1cccc(Cl)c1)N/N=C/c1ccc(O)c([N+](=O)[O-])c1` [D10.049] has an IC50 of 31.9 µM. In the case of `Cn1c(=O)[nH]c(=O)c2c1nc(NCCO)n2Cc1ccccc1Cl` [D3.058], the IC50 is reported as 44 µM. `COc1ccc(OCC(=O)N/N=C/c2c(Br)cc(Br)c(O)c2Br)c(Br)c1` [D10.105] was tested, and the IC50 was 99.4 µM. `C/C(=N\NC(=O)c1cc(C)n[nH]1)c1ccc(-c2ccccc2)cc1` [D10.047] gave an IC50 of 29.8 µM. In the case of `N#CC1=C(N)C(C#N)(C#N)C(c2ccccc2)C2CNCC=C12` (stereo not drawn) [D3.056], the IC50 is reported as 42.7 µM. For `COC(=O)C1=C(N)N2C(=O)CSC2=C(C(=O)OC)C1` [D3.008], the IC50 was 34.1 µM. With `CCCCOC(=O)c1cc(-c2ccc(/C=C3/C(=O)N(CC(C)O)C(=O)C(C#N)=C3C)o2)ccc1Cl` (stereo not drawn) [D12.027] the IC50 was 49 µM. With `CCOc1ccc(/C=N/NC(=O)c2cc(-c3c(OC)ccc4ccccc34)n[nH]2)cc1` [D10.083] the IC50 was 56.3 µM. Work on `COc1cc(C)ccc1N(CCCN1C(=O)c2cccc3cccc(c23)C1=O)C(=O)c1cc(C)cc(C)c1` [D3.073] yielded an IC50 of 55.4 µM. `Cc1ccccc1SCC(=O)N/N=C/c1ccc(C)c([N+](=O)[O-])c1` [D10.088] showed an IC50 of 58.8 µM. Compound `N#CC1=C(N)C(C#N)(C#N)C(c2ccccc2)C2CNCC=C12` (stereo not drawn) [D3.035] has an IC50 of 52.3 µM. With `CN(C)c1ccc(/C=C(\NC(=O)c2ccccc2)C(=O)N/N=C/c2cc(/N=N/c3ccccc3)ccc2O)cc1` [D10.051] the IC50 was 33.9 µM. With `CCOC(=O)c1c(C)oc2c1c1c(c3ccccc32)OCN(C2CCS(=O)(=O)C2)C1` (stereo not drawn) [D12.017] the IC50 was 34.2 µM. `Cc1ccc(S(=O)(=O)CNC(=S)c2ccc3ccccc3c2)cc1` [D9.002] showed an IC50 of 14.5 µM. In the case of `N#CC1=C(N)C(C#N)(C#N)C(c2ccccc2F)C2CNCC=C12` (stereo not drawn) [D4.009], the IC50 is reported as 7.4 µM. In the case of `CCC(N)C(=O)c1cccs1` (stereo not drawn) [D6.085], the IC50 is reported as 61.4 µM. In the case of `COc1ccc(-c2ccc(C3Nc4ccc5ccccc5c4C4=C3C(=O)CC(C)(C)C4)o2)cc1Cl` (stereo not drawn) [D6.098], the IC50 is reported as 87.9 µM. `CC(N)C(CC(=O)O)c1ccccc1` (stereo not drawn) [D13.003] showed an IC50 of 38 µM. `C=CCOC(=O)c1cc(-c2ccc(/C=C3/C(=O)N(CCCO)C(=O)C(C#N)=C3C)o2)ccc1Cl` [D6.065] showed an IC50 of 44.6 µM.
